{
  "source": "patent US8143243B2",
  "about": "“Compounds for the treatment of hepatitis C” (Bristol-Myers Squibb Company, priority 2007, dated 2012)",
  "key": {"HCV replicon cells": {"test_system": "HCV replicon cells", "test": "HCV replicon FRET / luciferase assay", "format": "cell-based", "details": "Hepatitis C virus", "summary_of_the_method": "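Readout was NS3 protease cleavage of an EDANS/DABCYL FRET peptide (20 μM final) in lysed HCV replicon cells, or Renilla luciferase in reporter replicons. Background came from wells with the highest level of control protease inhibitor. EC50 marked the concentration giving 50% signal reduction.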"}, "HCV NS5B": {"target": "T1, HCV NS5B (Hepatitis C virus genotype 1b, UniProt Q9WMX2)", "T1 construct": "The protein was expressed with an 18 amino acid C-terminal truncation to enhance the solubility; made in house; host or cells: E. coli BL21 (DE3)", "T1 sequence (Q9WMX2 2420-2992)": "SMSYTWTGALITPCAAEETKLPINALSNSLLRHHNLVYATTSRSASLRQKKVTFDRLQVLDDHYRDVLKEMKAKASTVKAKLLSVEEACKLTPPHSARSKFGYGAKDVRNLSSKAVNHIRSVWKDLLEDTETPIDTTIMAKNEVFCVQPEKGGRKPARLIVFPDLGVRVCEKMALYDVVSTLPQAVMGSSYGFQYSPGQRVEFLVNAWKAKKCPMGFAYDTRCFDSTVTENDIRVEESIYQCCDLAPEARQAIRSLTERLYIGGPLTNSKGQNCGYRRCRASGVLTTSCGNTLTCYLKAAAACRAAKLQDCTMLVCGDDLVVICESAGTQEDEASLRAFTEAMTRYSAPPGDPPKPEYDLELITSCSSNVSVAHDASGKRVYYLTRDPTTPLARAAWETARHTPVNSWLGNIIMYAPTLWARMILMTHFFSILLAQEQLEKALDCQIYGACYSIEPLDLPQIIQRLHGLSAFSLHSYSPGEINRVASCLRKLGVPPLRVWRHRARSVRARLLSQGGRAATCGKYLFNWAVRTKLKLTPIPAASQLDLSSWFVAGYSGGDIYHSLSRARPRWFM", "test": "HCV NS5B RdRp enzyme assay (standard / modified)", "format": "biochemical", "summary_of_the_method": "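SPA detection of 3H-UTP (0.29 μM) incorporation by C-terminally truncated (18 aa) genotype 1b NS5B from E. coli, on polyA/biotin-oligo-dT12 at 30° C, pH 7.5 Hepes, 2% DMSO. Modified format: 14 nM enzyme, 0.2 nM template, 20 nM primer prebound to beads, 4 h; standard: 28 nM, 6 nM, 180 nM free primer, 60 min. Seven-point IC50 fit.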"}, "[1]": {"details": "HCV replicon cells, FRET or luciferase readout, read-out: EC50"}, "[2]": {"details": "HCV RdRp genotype 1b enzyme, read-out: IC50"}},
  "note": "Where two headings read alike, the source gives them in different places.",
  "data": [
    {"smiles": "COc1ccc2c(c1)C=C(c1c(C(=O)N3[C@@H]4CC[C@H]3CN(C)C4)cnn1C(C)C)Cn1c-2c(C2CCCCC2)c2ccc(C(=O)NS(=O)(=O)CC(C)C)cc21", "values": [
      {"measurement": "EC50", "setting": "HCV replicon cells", "result": "1 to 500", "unit": "nM"},
      {"measurement": "IC50", "setting": "HCV NS5B", "result": "1 to 500", "unit": "nM"}
    ]},
    {"smiles": "CCN1C[C@@H]2C[C@H]1CN2C(=O)c1cnn(C)c1C1=Cc2cc(OC)ccc2-c2c(C3CCCCC3)c3ccc(C(=O)NS(=O)(=O)C(C)C)cc3n2C1", "values": [
      {"measurement": "EC50", "setting": "HCV replicon cells; [1]", "result": "1 to 500", "unit": "nM"},
      {"measurement": "IC50", "setting": "HCV NS5B; [2]", "result": "1 to 500", "unit": "nM"}
    ]},
    {"smiles": "CCOC(=O)c1cnn(C)c1C1=Cc2cc(OC)ccc2-c2c(C3CCCCC3)c3ccc(C(=O)NS(=O)(=O)C(C)C)cc3n2C1", "values": [
      {"measurement": "EC50", "setting": "HCV replicon cells; [1]", "result": "1 to 500", "unit": "nM"},
      {"measurement": "IC50", "setting": "HCV NS5B; [2]", "result": "1 to 500", "unit": "nM"}
    ]},
    {"smiles": "COc1ccc2c(c1)C=C(c1c(C(=O)N3C[C@@H](C)O[C@@H](C)C3)cnn1CC(C)C)Cn1c-2c(C2CCCCC2)c2ccc(C(=O)NS(=O)(=O)C(C)C)cc21", "values": [
      {"measurement": "EC50", "setting": "HCV replicon cells; [1]", "result": "1 to 500", "unit": "nM"},
      {"measurement": "IC50", "setting": "HCV NS5B; [2]", "result": "1 to 500", "unit": "nM"}
    ]},
    {"smiles": "COc1ccc2c(c1)C=C(c1c(C(=O)N3CC4CCC(C3)O4)cnn1C)Cn1c-2c(C2CCCCC2)c2ccc(C(=O)NS(=O)(=O)C(C)C)cc21", "values": [
      {"measurement": "EC50", "setting": "HCV replicon cells; [1]", "result": "1 to 500", "unit": "nM"},
      {"measurement": "IC50", "setting": "HCV NS5B; [2]", "result": "< 20", "unit": "nM"}
    ]},
    {"smiles": "CCN1C[C@@H]2CC1CN2C(=O)c1cnn(C(C)C)c1C1=Cc2cc(OC)ccc2-c2c(C3CCCCC3)c3ccc(C(=O)NS(=O)(=O)C(C)C)cc3n2C1", "values": [
      {"measurement": "EC50", "setting": "HCV replicon cells; [1]", "result": "1 to 500", "unit": "nM"},
      {"measurement": "IC50", "setting": "HCV NS5B; [2]", "result": "1 to 500", "unit": "nM"}
    ]},
    {"smiles": "COc1ccc2c(c1)C=C(c1ocnc1C(=O)O)Cn1c-2c(C2CCCCC2)c2ccc(C(=O)OC(C)(C)C)cc21", "values": [
      {"measurement": "EC50", "setting": "HCV replicon cells; [1]", "result": "> 40", "unit": "nM"},
      {"measurement": "IC50", "setting": "HCV NS5B; [2]", "result": "> 40", "unit": "nM"}
    ]},
    {"smiles": "COc1ccc2c(c1)C=C(c1c(C(=O)N3CCCC(N(C)C)C3)cnn1C)Cn1c-2c(C2CCCCC2)c2ccc(C(=O)NS(=O)(=O)N3CCOCC3)cc21", "note": "(stereo not drawn)", "values": [
      {"measurement": "EC50", "setting": "HCV replicon cells; [1]", "result": "1 to 500", "unit": "nM"},
      {"measurement": "IC50", "setting": "HCV NS5B; [2]", "result": "1 to 500", "unit": "nM"}
    ]},
    {"smiles": "COc1ccc2c(c1)C=C(c1c(C(=O)O)cnn1C)Cn1c-2c(C2CCCCC2)c2ccc(C(=O)O)cc21", "values": [
      {"measurement": "EC50", "setting": "HCV replicon cells; [1]", "result": "> 40", "unit": "nM"},
      {"measurement": "IC50", "setting": "HCV NS5B; [2]", "result": "1 to 500", "unit": "nM"}
    ]},
    {"smiles": "CCN1C[C@@H]2C[C@H]1CN2C(=O)c1cnn(C)c1C1=Cc2cc(OC)ccc2-c2c(C3CCCCC3)c3ccc(C(=O)NS(=O)(=O)C4CCC4)cc3n2C1", "values": [
      {"measurement": "EC50", "setting": "HCV replicon cells; [1]", "result": "1 to 500", "unit": "nM"},
      {"measurement": "IC50", "setting": "HCV NS5B; [2]", "result": "1 to 500", "unit": "nM"}
    ]},
    {"smiles": "COc1ccc2c(c1)C=C(c1c(C(=O)N3C4CCC3CC(C)(O)C4)cnn1CC(F)(F)F)Cn1c-2c(C2CCCCC2)c2ccc(C(=O)NS(=O)(=O)C(C)C)cc21", "note": "(stereo not drawn)", "values": [
      {"measurement": "EC50", "setting": "HCV replicon cells", "result": "1 to 500", "unit": "nM"},
      {"measurement": "IC50", "setting": "HCV NS5B", "result": "1 to 500", "unit": "nM"}
    ]},
    {"smiles": "COc1ccc2c(c1)C=C(c1c(C(=O)N3CCN4CCCC4C3)cnn1C)Cn1c-2c(C2CCCCC2)c2ccc(C(=O)NS(=O)(=O)N3CCOCC3)cc21", "note": "(stereo not drawn)", "values": [
      {"measurement": "EC50", "setting": "HCV replicon cells; [1]", "result": "1 to 500", "unit": "nM"},
      {"measurement": "IC50", "setting": "HCV NS5B; [2]", "result": "1 to 500", "unit": "nM"}
    ]},
    {"smiles": "COc1ccc2c(c1)C=C(c1c(C(=O)N3C4COCC3COC4)cnn1C)Cn1c-2c(C2CCCCC2)c2ccc(C(=O)NS(=O)(=O)C(C)C)cc21", "values": [
      {"measurement": "EC50", "setting": "HCV replicon cells", "result": "1 to 500", "unit": "nM"},
      {"measurement": "IC50", "setting": "HCV NS5B", "result": "1 to 500", "unit": "nM"}
    ]},
    {"smiles": "CCC(C)S(=O)(=O)NC(=O)c1ccc2c(C3CCCCC3)c3n(c2c1)CC(c1c(C(=O)N2CCOC(COC)C2)cnn1C)=Cc1cc(OC)ccc1-3", "note": "(stereo not drawn)", "values": [
      {"measurement": "EC50", "setting": "HCV replicon cells; [1]", "result": "1 to 500", "unit": "nM"},
      {"measurement": "IC50", "setting": "HCV NS5B; [2]", "result": "1 to 500", "unit": "nM"}
    ]},
    {"smiles": "CCC(C)S(=O)(=O)NC(=O)c1ccc2c(C3CCCCC3)c3n(c2c1)CC(c1c(C(=O)N2C4CCC2CN(C)C4)cnn1C)=Cc1cc(OC)ccc1-3", "note": "(stereo not drawn)", "values": [
      {"measurement": "EC50", "setting": "HCV replicon cells", "result": "1 to 500", "unit": "nM"},
      {"measurement": "IC50", "setting": "HCV NS5B", "result": "1 to 500", "unit": "nM"}
    ]},
    {"smiles": "COc1ccc2c(c1)C=C(c1c(C(=O)O)c(C)nn1C)Cn1c-2c(C2CCCCC2)c2ccc(C(=O)NS(=O)(=O)CC(C)C)cc21", "values": [
      {"measurement": "EC50", "setting": "HCV replicon cells; [1]", "result": "> 40", "unit": "nM"},
      {"measurement": "IC50", "setting": "HCV NS5B; [2]", "result": "1 to 500", "unit": "nM"}
    ]},
    {"smiles": "COc1ccc2c(c1)C=C(c1c(C(=O)N3C[C@@H]4C[C@H]3CO4)cnn1CC(F)(F)F)Cn1c-2c(C2CCCCC2)c2ccc(C(=O)NS(=O)(=O)C(C)C)cc21", "values": [
      {"measurement": "EC50", "setting": "HCV replicon cells; [1]", "result": "1 to 500", "unit": "nM"},
      {"measurement": "IC50", "setting": "HCV NS5B; [2]", "result": "1 to 500", "unit": "nM"}
    ]},
    {"smiles": "COc1ccc2c(c1)C=C(c1c(C(=O)N3C4CCC3CN(C)C4)cnn1C)Cn1c-2c(C2CCCCC2)c2ccc(C(=O)NS(=O)(=O)C(C)C)cc21", "values": [
      {"measurement": "EC50", "setting": "HCV replicon cells", "result": "1 to 500", "unit": "nM"},
      {"measurement": "IC50", "setting": "HCV NS5B", "result": "1 to 500", "unit": "nM"}
    ]},
    {"smiles": "COc1ccc2c(c1)C=C(c1c(C(=O)N3C4CCCC3COC4)cnn1C)Cn1c-2c(C2CCCCC2)c2ccc(C(=O)NS(=O)(=O)C3CCC3)cc21", "values": [
      {"measurement": "EC50", "setting": "HCV replicon cells", "result": "1 to 500", "unit": "nM"},
      {"measurement": "IC50", "setting": "HCV NS5B", "result": "1 to 500", "unit": "nM"}
    ]},
    {"smiles": "COc1ccc2c(c1)C=C(c1c(C(=O)N3CCN4CCC3CC4)cnn1C)Cn1c-2c(C2CCCCC2)c2ccc(C(=O)NS(=O)(=O)N3CCOCC3)cc21", "values": [
      {"measurement": "EC50", "setting": "HCV replicon cells; [1]", "result": "1 to 500", "unit": "nM"},
      {"measurement": "IC50", "setting": "HCV NS5B; [2]", "result": "1 to 500", "unit": "nM"}
    ]},
    {"smiles": "COc1ccc2c(c1)C=C(c1c(C(=O)N3CCOCC3)cnn1C)Cn1c-2c(C2CCCCC2)c2ccc(C(=O)NS(=O)(=O)N3CCOCC3)cc21", "values": [
      {"measurement": "EC50", "setting": "HCV replicon cells; [1]", "result": "1 to 500", "unit": "nM"},
      {"measurement": "IC50", "setting": "HCV NS5B; [2]", "result": "< 20", "unit": "nM"}
    ]},
    {"smiles": "CCN1C[C@@H]2C[C@H]1CN2C(=O)c1cnn(CC(F)(F)F)c1C1=Cc2cc(OC)ccc2-c2c(C3CCCCC3)c3ccc(C(=O)NS(=O)(=O)C(C)C)cc3n2C1", "values": [
      {"measurement": "EC50", "setting": "HCV replicon cells; [1]", "result": "1 to 500", "unit": "nM"},
      {"measurement": "IC50", "setting": "HCV NS5B; [2]", "result": "1 to 500", "unit": "nM"}
    ]},
    {"smiles": "COc1ccc2c(c1)C=C(c1c(C(=O)N3C[C@@H]4C[C@H]3CO4)cnn1C(C)C)Cn1c-2c(C2CCCCC2)c2ccc(C(=O)NS(=O)(=O)C(C)C)cc21", "values": [
      {"measurement": "EC50", "setting": "HCV replicon cells; [1]", "result": "1 to 500", "unit": "nM"},
      {"measurement": "IC50", "setting": "HCV NS5B; [2]", "result": "1 to 500", "unit": "nM"}
    ]},
    {"smiles": "COc1ccc2c(c1)C=C(c1c(C(=O)N3CCC(N(C)C)C3)cnn1C)Cn1c-2c(C2CCCCC2)c2ccc(C(=O)NS(=O)(=O)N3CCOCC3)cc21", "note": "(stereo not drawn)", "values": [
      {"measurement": "EC50", "setting": "HCV replicon cells; [1]", "result": "1 to 500", "unit": "nM"},
      {"measurement": "IC50", "setting": "HCV NS5B; [2]", "result": "1 to 500", "unit": "nM"}
    ]}
  ]
}
